Experimental data published in US9738634B2, “Heterocyclic amide compound and herbicide” (SYNGENTA PARTICIPATIONS AG, priority 2013, dated 2017).

Columns and labels:
Format in all cases: in vivo
beet [1] = experiment: Test Example 4: foliar treatment, effect on crop; f: beet; details: treatment dosage 315 g/ha
Summary of the method: (§1)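 Seeds are spot-sown into sterilized diluvial soil and covered with about 1.5 cm of soil. After 14 days' greenhouse growth at 25 to 30° C, plants are sprayed on stems and leaves with diluted emulsion at the stated g/ha rate, then scored at 3 weeks.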

bulrush [2] = experiment: Test Example 2: weedkilling efficacy, growth period weed treatment in the submerged state; B: bulrush; details: treatment dosage 252 g/ha
Summary of the method: (§2)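 Seedlings at 1-2 leaves in 4 cm-deep submerged alluvial soil received emulsion formulations on the water surface, dosed per hectare; effects were judged 3 weeks on.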

barnyard grass [3] = experiment: Test Example 1: weedkilling efficacy, preemergent weed treatment in the submerged state; A: barnyard grass; details: treatment dosage 252 g/ha
Summary of the method: (§3)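 Pre-emergence paddy test: weed seeds sown in submerged alluvial soil (4 cm water), 2.5-leaf rice transplanted, water-diluted emulsion applied to water surface at sowing at stated g/ha. Scored at 3 weeks, greenhouse 25–30 °C.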

black-grass [4] = experiment: Test Example 3: weedkilling efficacy through soil treatment; H: black-grass; details: treatment dosage 315 g/ha
Summary of the method: (§4)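 Crop and weed responses were judged three weeks after a uniform surface spray of the water-diluted emulsion at the given g/ha rate. Seeds sat beneath about 1.5 cm of sterilized diluvial soil, and boxes stood in a greenhouse at 25 to 30° C.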

Indian mallow [5] = experiment: Test Example 4: weedkilling efficacy by foliar treatment; K: Indian mallow; details: treatment dosage 315 g/ha
Summary of the method: as §1

bulrush [6] = experiment: Test Example 1: weedkilling efficacy, preemergent weed treatment in the submerged state; B: bulrush; details: treatment dosage 252 g/ha
Summary of the method: as §3

fig-leafed goosefoot [7] = experiment: Test Example 4: weedkilling efficacy by foliar treatment; M: fig-leafed goosefoot; details: treatment dosage 315 g/ha
Summary of the method: as §1

fig-leafed goosefoot [8] = experiment: Test Example 3: weedkilling efficacy through soil treatment; M: fig-leafed goosefoot; details: treatment dosage 315 g/ha
Summary of the method: as §4

Italian ryegrass [9] = experiment: Test Example 4: weedkilling efficacy by foliar treatment; I: Italian ryegrass; details: treatment dosage 315 g/ha
Summary of the method: as §1

Italian ryegrass [10] = experiment: Test Example 3: weedkilling efficacy through soil treatment; I: Italian ryegrass; details: treatment dosage 315 g/ha
Summary of the method: as §4

crabgrass [11] = experiment: Test Example 4: weedkilling efficacy by foliar treatment; D: crabgrass; details: treatment dosage 315 g/ha
Summary of the method: as §1

barnyard grass [12] = experiment: Test Example 2: weedkilling efficacy, growth period weed treatment in the submerged state; A: barnyard grass; details: treatment dosage 252 g/ha
Summary of the method: as §2

corn [13] = experiment: Test Example 4: foliar treatment, effect on crop; c: corn; details: treatment dosage 315 g/ha
Summary of the method: as §1

redroot pigweed [14] = experiment: Test Example 4: weedkilling efficacy by foliar treatment; L: redroot pigweed; details: treatment dosage 315 g/ha
Summary of the method: as §1

transplanted rice = experiment: Test Example 1: preemergent weed treatment in the submerged state, effect on crop; a: transplanted rice; details: treatment dosage 252 g/ha
Summary of the method: as §3

wild oat [15] = experiment: Test Example 4: weedkilling efficacy by foliar treatment; G: wild oat; details: treatment dosage 315 g/ha
Summary of the method: as §1

crabgrass [16] = experiment: Test Example 3: weedkilling efficacy through soil treatment; D: crabgrass; details: treatment dosage 315 g/ha
Summary of the method: as §4

soybean [17] = experiment: Test Example 4: foliar treatment, effect on crop; d: soybean; details: treatment dosage 315 g/ha
Summary of the method: as §1

green foxtail [18] = experiment: Test Example 4: weedkilling efficacy by foliar treatment; E: green foxtail; details: treatment dosage 315 g/ha
Summary of the method: as §1

oval-leafed pondweed [19] = experiment: Test Example 1: weedkilling efficacy, preemergent weed treatment in the submerged state; C: oval-leafed pondweed; details: treatment dosage 252 g/ha
Summary of the method: as §3

directly sown rice = experiment: Test Example 4: foliar treatment, effect on crop; b: directly sown rice; details: treatment dosage 315 g/ha
Summary of the method: as §1

catchweed = experiment: Test Example 4: weedkilling efficacy by foliar treatment; O: catchweed; details: treatment dosage 315 g/ha
Summary of the method: as §1

oval-leafed pondweed [20] = experiment: Test Example 2: weedkilling efficacy, growth period weed treatment in the submerged state; C: oval-leafed pondweed; details: treatment dosage 252 g/ha
Summary of the method: as §2

wild oat [21] = experiment: Test Example 3: weedkilling efficacy through soil treatment; G: wild oat; details: treatment dosage 315 g/ha
Summary of the method: as §4

chickweed [22] = experiment: Test Example 4: weedkilling efficacy by foliar treatment; N: chickweed; details: treatment dosage 315 g/ha
Summary of the method: as §1

redroot pigweed [23] = experiment: Test Example 3: weedkilling efficacy through soil treatment; L: redroot pigweed; details: treatment dosage 315 g/ha
Summary of the method: as §4

corn [24] = experiment: Test Example 3: soil treatment, effect on crop; c: corn; details: treatment dosage 315 g/ha
Summary of the method: as §4

black-grass [25] = experiment: Test Example 4: weedkilling efficacy by foliar treatment; H: black-grass; details: treatment dosage 315 g/ha
Summary of the method: as §1

soybean [26] = experiment: Test Example 3: soil treatment, effect on crop; d: soybean; details: treatment dosage 315 g/ha
Summary of the method: as §4

Indian mallow [27] = experiment: Test Example 3: weedkilling efficacy through soil treatment; K: Indian mallow; details: treatment dosage 315 g/ha
Summary of the method: as §4

green foxtail [28] = experiment: Test Example 3: weedkilling efficacy through soil treatment; E: green foxtail; details: treatment dosage 315 g/ha
Summary of the method: as §4

birds-eye speedwell = experiment: Test Example 4: weedkilling efficacy by foliar treatment; p: birds-eye speedwell; details: treatment dosage 315 g/ha
Summary of the method: as §1

wheat [29] = experiment: Test Example 3: soil treatment, effect on crop; e: wheat; details: treatment dosage 315 g/ha
Summary of the method: as §4

beet [30] = experiment: Test Example 3: soil treatment, effect on crop; f: beet; details: treatment dosage 315 g/ha
Summary of the method: as §4

wheat [31] = experiment: Test Example 4: foliar treatment, effect on crop; e: wheat; details: treatment dosage 315 g/ha
Summary of the method: as §1

chickweed [32] = experiment: Test Example 3: weedkilling efficacy through soil treatment; N: chickweed; details: treatment dosage 315 g/ha
Summary of the method: as §4

| SMILES | f (beet) effect on crop grade (beet [1]) | B (bulrush) weedkilling efficacy grade (bulrush [2]) | A (barnyard grass) weedkilling efficacy grade (barnyard grass [3]) | H (black-grass) weedkilling efficacy grade (black-grass [4]) | K (Indian mallow) weedkilling efficacy grade (Indian mallow [5]) | B (bulrush) weedkilling efficacy grade (bulrush [6]) | M (fig-leafed goosefoot) weedkilling efficacy grade (fig-leafed goosefoot [7]) | M (fig-leafed goosefoot) weedkilling efficacy grade (fig-leafed goosefoot [8]) | I (Italian ryegrass) weedkilling efficacy grade (Italian ryegrass [9]) | I (Italian ryegrass) weedkilling efficacy grade (Italian ryegrass [10]) | D (crabgrass) weedkilling efficacy grade (crabgrass [11]) | A (barnyard grass) weedkilling efficacy grade (barnyard grass [12]) | c (corn) effect on crop grade (corn [13]) | L (redroot pigweed) weedkilling efficacy grade (redroot pigweed [14]) | a (transplanted rice) effect on crop grade (transplanted rice) | G (wild oat) weedkilling efficacy grade (wild oat [15]) | D (crabgrass) weedkilling efficacy grade (crabgrass [16]) | d (soybean) effect on crop grade (soybean [17]) | E (green foxtail) weedkilling efficacy grade (green foxtail [18]) | C (oval-leafed pondweed) weedkilling efficacy grade (oval-leafed pondweed [19]) | other results |
| --- | --- | --- | --- | --- | --- | --- | --- | --- | --- | --- | --- | --- | --- | --- | --- | --- | --- | --- | --- | --- | --- |
| CC1=C(c2ccccc2)C(=O)N(C(C)(C)C(=O)Nc2cncc(Cl)c2)CO1 [B-3-02] | 3 (weed kill ratio 40% or more, less than 70%) | 5 (weed kill ratio 90% or more, (practically complete withering)) | 5 (weed kill ratio 90% or more, (practically complete withering)) | 5 (weed kill ratio 90% or more, (practically complete withering)) | 4 (weed kill ratio 70% or more, less than 90%) | 5 (weed kill ratio 90% or more, (practically complete withering)) | 2 (weed kill ratio 20% or more, less than 40%) | 4 (weed kill ratio 70% or more, less than 90%) | 5 (weed kill ratio 90% or more, (practically complete withering)) | 5 (weed kill ratio 90% or more, (practically complete withering)) | 5 (weed kill ratio 90% or more, (practically complete withering)) | 4 (weed kill ratio 70% or more, less than 90%) | 4 (weed kill ratio 70% or more, less than 90%) | 3 (weed kill ratio 40% or more, less than 70%) | 3 (weed kill ratio 40% or more, less than 70%) | 5 (weed kill ratio 90% or more, (practically complete withering)) | 5 (weed kill ratio 90% or more, (practically complete withering)) | 4 (weed kill ratio 70% or more, less than 90%) | 5 (weed kill ratio 90% or more, (practically complete withering)) | 5 (weed kill ratio 90% or more, (practically complete withering)) | b (directly sown rice) effect on crop grade (directly sown rice): 5 (weed kill ratio 90% or more, (practically complete withering)); O (catchweed) weedkilling efficacy grade (catchweed): 4 (weed kill ratio 70% or more, less than 90%); C (oval-leafed pondweed) weedkilling efficacy grade (oval-leafed pondweed [20]): 5 (weed kill ratio 90% or more, (practically complete withering)); G (wild oat) weedkilling efficacy grade (wild oat [21]): 5 (weed kill ratio 90% or more, (practically complete withering)); N (chickweed) weedkilling efficacy grade (chickweed [22]): 0 (weed kill ratio 5% or less (practically no effect)); L (redroot pigweed) weedkilling efficacy grade (redroot pigweed [23]): 5 (weed kill ratio 90% or more, (practically complete withering)); c (corn) effect on crop grade (corn [24]): 3 (weed kill ratio 40% or more, less than 70%); H (black-grass) weedkilling efficacy grade (black-grass [25]): 5 (weed kill ratio 90% or more, (practically complete withering)); d (soybean) effect on crop grade (soybean [26]): 0 (weed kill ratio 5% or less (practically no effect)); K (Indian mallow) weedkilling efficacy grade (Indian mallow [27]): 3 (weed kill ratio 40% or more, less than 70%); E (green foxtail) weedkilling efficacy grade (green foxtail [28]): 5 (weed kill ratio 90% or more, (practically complete withering)); P (birds-eye speedwell) weedkilling efficacy grade (birds-eye speedwell): 3 (weed kill ratio 40% or more, less than 70%); e (wheat) effect on crop grade (wheat [29]): 5 (weed kill ratio 90% or more, (practically complete withering)); f (beet) effect on crop grade (beet [30]): 4 (weed kill ratio 70% or more, less than 90%); e (wheat) effect on crop grade (wheat [31]): 3 (weed kill ratio 40% or more, less than 70%); N (chickweed) weedkilling efficacy grade (chickweed [32]): 4 (weed kill ratio 70% or more, less than 90%) |
| CC1=C(c2ccccc2)C(=O)N(C(C)(C)C(=O)Nc2ccnc(Cl)c2)CO1 [B-4-03] | 4 (weed kill ratio 70% or more, less than 90%) | 5 (weed kill ratio 90% or more, (practically complete withering)) | 5 (weed kill ratio 90% or more, (practically complete withering)) | 5 (weed kill ratio 90% or more, (practically complete withering)) | 4 (weed kill ratio 70% or more, less than 90%) | 5 (weed kill ratio 90% or more, (practically complete withering)) | 3 (weed kill ratio 40% or more, less than 70%) | 5 (weed kill ratio 90% or more, (practically complete withering)) | 5 (weed kill ratio 90% or more, (practically complete withering)) | 5 (weed kill ratio 90% or more, (practically complete withering)) | 5 (weed kill ratio 90% or more, (practically complete withering)) | 4 (weed kill ratio 70% or more, less than 90%) | 4 (weed kill ratio 70% or more, less than 90%) | 3 (weed kill ratio 40% or more, less than 70%) | 4 (weed kill ratio 70% or more, less than 90%) | 5 (weed kill ratio 90% or more, (practically complete withering)) | 5 (weed kill ratio 90% or more, (practically complete withering)) | 4 (weed kill ratio 70% or more, less than 90%) | 5 (weed kill ratio 90% or more, (practically complete withering)) | 5 (weed kill ratio 90% or more, (practically complete withering)) | b (directly sown rice) effect on crop grade (directly sown rice): 5 (weed kill ratio 90% or more, (practically complete withering)); O (catchweed) weedkilling efficacy grade (catchweed): 5 (weed kill ratio 90% or more, (practically complete withering)); C (oval-leafed pondweed) weedkilling efficacy grade (oval-leafed pondweed [20]): 4 (weed kill ratio 70% or more, less than 90%); G (wild oat) weedkilling efficacy grade (wild oat [21]): 4 (weed kill ratio 70% or more, less than 90%); N (chickweed) weedkilling efficacy grade (chickweed [22]): 1 (weed kill ratio 5% or more, less than 20%); L (redroot pigweed) weedkilling efficacy grade (redroot pigweed [23]): 5 (weed kill ratio 90% or more, (practically complete withering)); c (corn) effect on crop grade (corn [24]): 2 (weed kill ratio 20% or more, less than 40%); H (black-grass) weedkilling efficacy grade (black-grass [25]): 5 (weed kill ratio 90% or more, (practically complete withering)); d (soybean) effect on crop grade (soybean [26]): 3 (weed kill ratio 40% or more, less than 70%); K (Indian mallow) weedkilling efficacy grade (Indian mallow [27]): 3 (weed kill ratio 40% or more, less than 70%); E (green foxtail) weedkilling efficacy grade (green foxtail [28]): 5 (weed kill ratio 90% or more, (practically complete withering)); P (birds-eye speedwell) weedkilling efficacy grade (birds-eye speedwell): 4 (weed kill ratio 70% or more, less than 90%); e (wheat) effect on crop grade (wheat [29]): 1 (weed kill ratio 5% or more, less than 20%); f (beet) effect on crop grade (beet [30]): 4 (weed kill ratio 70% or more, less than 90%); e (wheat) effect on crop grade (wheat [31]): 0 (weed kill ratio 5% or less (practically no effect)); N (chickweed) weedkilling efficacy grade (chickweed [32]): 3 (weed kill ratio 40% or more, less than 70%) |
